Test results taken from patent US11058756B2, “Compositions and methods of treating autoimmune disease by reducing enterococcus” (YALE UNIVERSITY, priority 2017, dated 2021).
“Also recorded” adds a separate entry of the source.

Columns and labels:
[1] = test system: (NZWxBXSB)F1 mice; experiment: Oral antibiotics in drinking water: mortality, clinical outcome, proteinuria and organ histology in the autoimmune hybrid model; assay type: in vivo, mouse
Description: 6-week-old male (NZWxBXSB)F1 mice and C57BL/6J mice were used in this study except if noted otherwise. (NZWxBXSB)F1 were bred by mating NZW/LaJ females with BXSB/MpJ males obtained from Jackson Laboratory (Bar Harbor, Me., USA). Parental littermates of (NZWxBXSB)F1 were randomly mixed with littermates from other parental cages 21 days after birth to equilibrate the microbiomes from different cages and parental origin. All mice were maintained in a specific-pathogen-free environment. (NZWxBXSB)F1 mice were provided with water and a standard laboratory diet ad libitum (2018 Harlan Teklad, South Easton, Mass., USA). They were supplied with hardwood chips as bedding and were housed in a temperature-controlled, air-conditioned room on a 12-hr light-dark cycle. Germ-free (GF) C57BL/6 mice were kept under sterile conditions in CBC's (Class Biologically Clean, Madison, Wis., USA) Quad flexible film isolators (Softwall), exposed to a 12-hr light/dark cycle and provided standard, autoclaved tap water and mouse chow (2018S Harlan Teklad, South Easton, Mass., USA) ad libitum. To exclude a Th17 bias, a PCR for segmented filamentous bacteria (SFB) was performed on fecal DNA from all mice involving Th17 studies. Fecal SFB detection at 6-8 weeks of age that correlates with ileal SFB colonization was performed as described (Barman et al., 2008, Infect Immun, 76, 907-915; Kriegel et al., 2011, Proc Natl Acad Sci USA, 108, 11548-11553). All Th17 data was derived from SFB-negative animals.
(§1) Mice were cohoused for 3 to 4 weeks before antibiotic treatment to allow for equilibration of the microbiota. Single antibiotic or broad-spectrum antibiotic administration consisted of metronidazole (1 g/liter; Fisher Scientific), neomycin (1 g/liter; Fisher Scientific), ampicillin (1 g/liter; Sigma) and vancomycin (0.5 g/liter; Acros Organics) in the drinking water for up to 22 weeks or a targeted regiment for 2 weeks and then replaced with regular water for the duration of the experiment. For broad-spectrum antibiotic experiments (vancomycin, ampicillin, metronidazole, and neomycin combined), sweetener (Equal, 4 g/L) was added to both the antibiotics and control water due to the metallic taste of metronidazole. Twenty-four hours after cessation of antibiotic water, mice were administered 1×10^6 CFUs of vancomycin-resistant E. gallinarum via oral gavage, isolated from liver tissue of a vancomycin-treated mouse that continued to show signs of autoimmune disease (high-level resistance was confirmed by vanC gene PCR). E. gallinarum was grown at 37° C. in Gifu Anaerobic Broth (HIMEDIA Laboratories) to early stationary phase under anaerobic conditions (82% N2, 15% CO2, 3% H2 by volume) in an anaerobic chamber and diluted in PBS to 10^7 CFUs.
Samples were obtained at autopsy and fixed in 10% neutral formalin, and histological sections were stained with hematoxylin and eosin (H&E) and scored in a blinded fashion. Glomerulonephritis was scored on a scale of 0-4 based on the intensity and extent of histopathological changes (Klopfleisch, 2013, BMC Vet Res, 9, 123). A grade of 0 was given to kidneys without glomerular lesions; grade 1 consisted of minimal thickening of the mesangium; grade 2 contained noticeable increases in both mesangial and glomerular cellularity; grade 3 was characterized by the preceding conditions with superimposed inflammatory exudates and capsular adhesions; and grade 4 consisted of obliterated glomerular architecture in greater than 70% of glomeruli. […]

[2] = test system: E. gallinarum; experiment: Assessment of bacterial translocation and tissue burden (anaerobic tissue cultures, CFU); assay type: in vivo, mouse; conditions: FIG. 1K-1N
Description: Mice were cohoused for 3 to 4 weeks before antibiotic treatment to allow for equilibration of the microbiota. Single antibiotic or broad-spectrum antibiotic administration consisted of metronidazole (1 g/liter; Fisher Scientific), neomycin (1 g/liter; Fisher Scientific), ampicillin (1 g/liter; Sigma) and vancomycin (0.5 g/liter; Acros Organics) in the drinking water for up to 22 weeks or a targeted regiment for 2 weeks and then replaced with regular water for the duration of the experiment. For broad-spectrum antibiotic experiments (vancomycin, ampicillin, metronidazole, and neomycin combined), sweetener (Equal, 4 g/L) was added to both the antibiotics and control water due to the metallic taste of metronidazole. […] E. gallinarum was grown at 37° C. in Gifu Anaerobic Broth (HIMEDIA Laboratories) to early stationary phase under anaerobic conditions (82% N2, 15% CO2, 3% H2 by volume) in an anaerobic chamber and diluted in PBS to 10^7 CFUs.
14-, 16- and 18-week-old mice underwent sterile laparotomy and nose, mouth, small intestine (luminal and adherent fractions), mesenteric veins, mesenteric lymph nodes (MLN), liver and spleen were aseptically collected in BBL Mycoflask Thioglycollate (Fluid) Prepared Media (BD Diagnostic Systems) and incubated for 72 hours in anaerobic conditions at 37° C. Gifu Media Agar plates were streaked with the content from the BBL Mycoflask Thioglycollate and incubated for 48 hours in an anaerobic chamber at 37° C. Colony Formation Units (CFU) were counted and concentration determined per milligram of tissue. Single colonies were grown in Gifu anaerobic media for 48 hours in an anaerobic chamber at 37° C. and aliquots from each sample were collected and centrifuge for 10 minutes at 10000×g. DNA was extracted from bacterial pellets using DNeasy Blood and Tissue kit (Qiagen) and submitted to PCR amplification of the 16S region and Sanger sequencing. In addition, purified DNA was used for eubacterial, Enterococcus genus and Enterococcus gallinarum PCR assays.

[3] = test system: Th17 and Tfh cells; experiment: Th17/Tfh cell frequencies (FACS) and splenocyte cytokines (LEGENDplex) after antibiotic treatment in vivo; design: species or system mouse
Description: as §1
Cytokine levels were determined from culture supernatants using LEGENDplex™ (BioLegend), a bead-based immunoassay. The preformed mouse T helper cytokine panel was used. […]
For direct ex vivo intracellular cytokine detection, cells isolated from small intestinal lamina propria, MLN or spleen were immediately treated with GolgiStop (BD Bioscience) and surface-stained in FACS buffer (PBS, 2% bovine serum albumin, 0.2 mg of sodium azide, 2 mM EDTA) for 30 minutes in the dark at room temperature with fluorescently conjugated antibodies specific for CD3, CD4, CD11b, CD11c, CD44, CD62L, CD19, CD45, CD45R (B220), CXCR5, GITR, IL-17, IFN-g, Ly6C, NK1.1, PDCA-1, PD-1 and PSGL-1. […] Cell viability was assessed with Zombie NIR Fixable Viability Kit (BioLegend).

[4] = test system: MLN Th17 cells; experiment: Vancomycin in vitro assay on MLN cell cultures (Th17 frequency by FACS); assay type: cell-based, mouse; conditions: vancomycin 16 μg/mL, anti-CD3/anti-CD28, 3 days (FIG. 19D legend)
Description: […] In vitro samples were stained as described above. All samples were collected using an LSR II flow cytometer (Becton Dickinson). All flow cytometry data were analyzed by FlowJo version 9.7 (Tree Star).

[5] = test system: ERV gp70; experiment: Liver ERV gp70 expression by RT-qPCR after oral antibiotics; assay type: in vivo, mouse; conditions: oral vancomycin; FIG. 7
Description: as §1, with “E. gallinarum was grown at 37° C. in Gifu Anaerobic Broth (HIMEDIA Laboratories) to early stationary phase under anaerobic conditions (82% N2, 15% CO2, 3% H2 by volume) in an anaerobic chamber and diluted in PBS to 10^7 CFUs.” left out
RNA was isolated from hepatocytes, dendritic cells or ileum using the RNAeasy plus mini kit (Qiagen) according to the manufacturer's instructions. cDNA was generated using the QuantiTect Reverse Transcription Kit (Qiagen). […]

CN[C@H](CC(C)C)C(=O)N[C@H]1C(=O)N[C@@H](CC(N)=O)C(=O)N[C@H]2C(=O)N[C@H]3C(=O)N[C@H](C(=O)N[C@H](C(=O)O)c4cc(O)cc(O)c4-c4cc3ccc4O)[C@H](O)c3ccc(c(Cl)c3)Oc3cc2cc(c3O[C@@H]2O[C@H](CO)[C@@H](O)[C@H](O)[C@H]2O[C@H]2C[C@](C)(N)[C@H](O)[C@H](C)O2)Oc2ccc(cc2Cl)[C@H]1O [vancomycin]
Mortality ([1]; single antibiotic in drinking water from 6 weeks of age, followed for 30 weeks or until death, FIG. 1A): prevented
autoimmune manifestations (proteinuria, organ histology scores) ([1]; single antibiotic in drinking water, FIG. 1D-1I): prevented
Translocation (bacterial growth in mesenteric veins, MLN, liver, spleen) ([2]; (NZWxBXSB)F1 mice, antibiotics in drinking water, 16-18 weeks of age): reduced
suppression of growth of E. gallinarum in tissues, VANC compared to NEO-treated animals ([2]; mesenteric veins, MLN, liver, spleen, P=0.0337 and P<0.005): significantly higher
Tfh cells ([3]; MLN of (NZWxBXSB)F1 mice treated via drinking water, FIG. 19C): reduced; also recorded: suppresses
Th17 cells ([3]; spleen and MLN of (NZWxBXSB)F1 mice, SFB-negative, treated via drinking water, FIG. 19): reduced; also recorded: suppresses
cytokine signatures (inflammatory cytokines in splenocyte supernatants) ([3]; splenocytes stimulated with anti-CD3/anti-CD28 for 3 days, FIG. 19A): reduced; also recorded: suppresses
direct influence on immune cells in vitro (MLN Th17 cell frequency) [4]: no direct influence
hepatic ERV gp70 [5]: suppressed
